Results from patent US10829464B2, “Benzoheterocyclic alkylamine compounds and use thereof” (priority 2016, dated 2020).
Converted amounts (≈) assume the structure as drawn. Where a name gives a salt, the structure may show the parent alone. Each block holds one molecule with its values, some of them ahead of it.

Key:
[1] = target: CYP enzyme subtype 2C19 (Homo sapiens, UniProt P33261); test: Inhibition assay on hepatic CYP450 enzyme; type: in vitro ADME; conditions: CYP 2C19; read-out: Half inhibitory concentration (IC50)
Chain of CYP enzyme subtype 2C19 (P33261 whole entry): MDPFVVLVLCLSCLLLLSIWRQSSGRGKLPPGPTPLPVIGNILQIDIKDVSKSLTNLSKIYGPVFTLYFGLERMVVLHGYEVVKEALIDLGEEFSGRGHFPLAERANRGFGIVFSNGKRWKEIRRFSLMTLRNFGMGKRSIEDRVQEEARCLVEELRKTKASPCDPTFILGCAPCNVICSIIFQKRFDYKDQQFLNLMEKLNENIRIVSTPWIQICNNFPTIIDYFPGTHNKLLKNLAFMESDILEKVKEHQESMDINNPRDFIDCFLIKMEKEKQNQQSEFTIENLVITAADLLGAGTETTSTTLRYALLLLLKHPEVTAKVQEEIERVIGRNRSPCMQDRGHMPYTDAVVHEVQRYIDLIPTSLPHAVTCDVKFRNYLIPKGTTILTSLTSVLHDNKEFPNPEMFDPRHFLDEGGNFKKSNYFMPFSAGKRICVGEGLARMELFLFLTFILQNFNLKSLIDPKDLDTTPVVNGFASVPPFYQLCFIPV

[2] = test system: Mu50; test: In vivo pharmacodynamics evaluation in infected mice; conditions: BALB/c mice infected retroorbitally with Mu50
Experimental: (§1) Compound IA-25 was used as a representative compound. The laboratory SPF-grade female BALB/c mice were purchased from Shanghai Jiesijie Laboratory Animal Co., Ltd. and bred under aseptic condition to 6-8 weeks old. The S. aureus strains which had been cultured overnight were transferred to fresh and sterile TSB medium and cultured at 37° C. and 250 rpm for 3 h to exponential growth phase; the culture was washed twice with PBS buffer, and then suspended in PBS for later use. In the mouse infection assay, the mice were divided into several groups, each containing 10 mice.

[3] = test system: NRS108; test: as above; conditions: BALB/c mice infected retroorbitally with NRS108
Experimental: as §1

[4] = test system: LRSA56; test: as above; conditions: BALB/c mice infected retroorbitally with LRSA56
Experimental: as §1

[5] = test system: NRS271; test: as above; conditions: BALB/c mice infected retroorbitally with NRS271
Experimental: as §1

[6] = test system: NF65Y; test: as above; conditions: BALB/c mice infected retroorbitally with NF65Y
Experimental: as §1

[7] = test system: LRSA202; test: as above; conditions: BALB/c mice infected retroorbitally with LRSA202
Experimental: as §1

[8] = test system: strain Newman; test: as above; conditions: BALB/c mice infected retroorbitally with Newman
Experimental: as §1

[9] = test system: HepG2; test: In vitro cytotoxicity assay
[10] = test system: HEK293; test: In vitro cytotoxicity assay
[11] = test system: wild-type S. aureus Newman strain; test: Verification assay using CrtN as a target (HPLC of carotenoid extract); type: cell-based, Staphylococcus aureus; conditions: 100 μM added to wild-type strain Newman, 440 nm
[12] = test system: Trichophyton rubrum; test: In vitro antifungal assay (micro liquid-based dilution); type: cell-based; conditions: read-out: Antifungal Activities, MIC80
[13] = test system: Tinea barbae; test: as above; type: cell-based; conditions: read-out: Antifungal Activities, MIC80
[14] = test system: Microsporum gypseum; test: as above; type: cell-based; conditions: Nannizzia gypsea, read-out: Antifungal Activities, MIC80
[15] = test system: S. aureus strain Newman; test: IC50 determination of inhibition of staphyloxanthin synthesis; type: cell-based; conditions: Staphylococcus aureus; S. aureus strain Newman, Table 1; read-out: IC50, inhibitory activity on staphyloxanthin synthesis
Experimental: Selection of compound concentrations: based on the preliminary screening results, the ability of each compound to inhibit staphyloxanthin synthesis was determined. […] According to the assay results, 10 different concentration gradients were designed for each compound, such that the ability to inhibit staphyloxanthin synthesis comprised substantially from 0% to 100%.
Culture of the strains: single colonies of strain Newman and crtN mutant strain were picked from TSA plates, added into test tubes containing 4 mL of sterile TSB medium, and cultured at 37° C. and 250 rpm for 12 h for later use.
The relative level of staphyloxanthin synthesis at each concentration of the compound of the invention=A450 (sample)/A450 (negative control)*100%. With the molar concentration of the compound as the abscissa and the relative level of staphyloxanthin synthesis as the ordinate, a curve fitting of inhibitor concentration-inhibition rate (log(inhibitor) vs response) was performed in Graphpad prism 5.0 software, and the IC50 of the compound for inhibiting staphyloxanthin synthesis was calculated by software based on the fitting results.
S. aureus was selected for IC50 determination with respect to activity of inhibiting staphyloxanthin synthesis. […]

[16] = test system: Staphylococcus aureus subsp. aureus str. strain Newman; test: Preliminary screening assay of inhibition of staphyloxanthin synthesis; type: cell-based; conditions: 50, 10, 5, 2.5, 1.25, 0.625, 0.3125 and 0 μM from left to right
Experimental: Strains used for assay: freshly activated wild-type Staphylococcus aureus subsp. aureus str. strain Newman and its homologous mutant strain having crtN insertion (without staphyloxanthin synthesis).
Medium for assay: Tryptone Soy broth (TSB), a product from Oxid Corporation, the United Kingdom, which was formulated with distilled water, sterilized at 121° C. for 15 min for later use.
Method of Preliminary Screening Assay:
(1) Preparation of compound: the compound of the invention was dissolved in dimethyl sulfoxide (DMSO) to prepare a stock solution having a concentration of 10 mM; 400 μL of DMSO was added to 100 μL of the stock solution to get a dilution with a concentration of 2 mM; 250 μL (2 mM) of the dilution was taken after mixing, and an equal amount of DMSO was added thereto for 2-fold dilution to get a solution with a concentration of […] for later use.
(2) Culture of the strain: single colonies of strain Newman were picked from TSA plates into a test tube containing 4 mL of sterile TSB medium, and cultured at 37° C. and 250 rpm for 12 h for later use.

IC50 [1]: 3.88 µM
Structure (SMILES): COc1ccc2[nH]c([S+]([O-])Cc3ncc(C)c(OC)c3C)nc2c1 (stereo not drawn) [omeprazole, reference compound]

Structure (SMILES): CC(=O)NC[C@H]1CN(c2ccc(N3CCOCC3)c(F)c2)C(=O)O1 [Linezolid]
Viable colony counts in vivo [2]: 3.1 Log10CFU | Viable colony counts in vivo [3]: 2.3 Log10CFU | Viable colony counts in vivo [4]: 4.6 Log10CFU | Viable colony counts in vivo [5]: 8.3 Log10CFU | Viable colony counts in vivo [6]: 5.1 Log10CFU | Viable colony counts in vivo [7]: 4.6 Log10CFU | Viable colony counts in vivo [8]: 4.9 Log10CFU

Structure (SMILES): C[C@@H]1[C@H](O)[C@@H](C)/C=C/C=C/C=C/C=C/C=C/C=C/C=C/[C@H](O[C@@H]2O[C@H](C)[C@@H](O)[C@H](N)[C@@H]2O)C[C@@H]2O[C@](O)(C[C@@H](O)C[C@@H](O)[C@H](O)CC[C@@H](O)C[C@@H](O)CC(=O)O[C@H]1C)C[C@H](O)[C@H]2C(=O)O [Amphotericin B]
CC50 of compounds on cells [9]: 2.956 µg/mL | CC50 of compounds on cells [10]: 3.923 µg/mL

Structure (SMILES): CN[C@H](CC(C)C)C(=O)N[C@H]1C(=O)N[C@@H](CC(N)=O)C(=O)N[C@H]2C(=O)N[C@H]3C(=O)N[C@H](C(=O)N[C@H](C(=O)O)c4cc(O)cc(O)c4-c4cc3ccc4O)[C@H](O)c3ccc(c(Cl)c3)Oc3cc2cc(c3O[C@@H]2O[C@H](CO)[C@@H](O)[C@H](O)[C@H]2O[C@H]2C[C@](C)(N)[C@H](O)[C@H](C)O2)Oc2ccc(cc2Cl)[C@H]1O [Vancomycin]
Viable colony counts in vivo [2]: 5.4 Log10CFU | Viable colony counts in vivo [3]: 2.4 Log10CFU | Viable colony counts in vivo [4]: 3.8 Log10CFU | Viable colony counts in vivo [5]: 6.5 Log10CFU | Viable colony counts in vivo [6]: 4.6 Log10CFU | Viable colony counts in vivo [7]: 5.3 Log10CFU | Viable colony counts in vivo [8]: 4.3 Log10CFU

Structure (SMILES): CN(C/C=C/c1ccccc1)Cc1cccc2ccccc12 [naftifine hydrochloride, reference compound]
HPLC absorption peaks of carotenoid extract [11]: absorption peaks at the original peak position disappeared again

MIC80 [12]: 0.5 µg/mL (≈ 0.941 µM) | MIC80 [13]: 0.0625 µg/mL (≈ 0.118 µM) | MIC80 [14]: 2 µg/mL (≈ 3.76 µM)
Structure (SMILES): CC(=O)N1CCN(c2ccc(OCC3COC(Cn4ccnc4)(c4ccc(Cl)cc4Cl)O3)cc2)CC1 (stereo not drawn) [Ketoconazole]

MIC80 [12]: 0.0312 µg/mL (≈ 0.0895 µM) | MIC80 [13]: 0.0312 µg/mL (≈ 0.0895 µM) | MIC80 [14]: 0.25 µg/mL (≈ 0.716 µM)
Structure (SMILES): C[C@@H](c1ncncc1F)[C@](O)(Cn1cncn1)c1ccc(F)cc1F [Voriconazole]

Structure (SMILES): Cc1cccc(/C=C/CN(C)Cc2coc3ccccc23)c1 [Compound IA-37, (E)-N-methyl-N-[(benzofuran-3-yl)methylene]-3-(3-methylphenyl)-prop-2-en-1-amine]
IC50 [15]: > 1000 nM

Structure (SMILES): CN(C/C=C/c1cccc2ccccc12)Cc1coc2ccccc12 [Compound IA-10, (E)-N-methyl-N-[(benzofuran-3-yl)methylene]-3-(naphthalen-1-yl)prop-2-en-1-amine]
IC50 [15]: > 1000 nM

Structure (SMILES): CN(C/C=C/c1ccc(C(C)(C)C)cc1)Cc1coc2ccccc12 [Compound IA-27, (E)-N-methyl-N-[(benzofuran-3-yl)methylene]-3-(4-tert-butylphenyl)-prop-2-en-1-amine]
IC50 [15]: > 1000 nM

Structure (SMILES): CN(Cc1coc2ccccc12)C[C@@H]1C[C@H]1c1ccc(-c2ccccc2)cc1 [Compound IC-1, 1-((1R,2R)-2-([1,1′-biphenyl]-4-yl)cyclopropyl)-N-(benzofuran-3-ylmethyl)-N-methylmethanamine]
IC50 [15]: > 1000 nM | colors in final photograph of inhibition of staphyloxanthin synthesis [16]: white to yellow from left to right gradually

Structure (SMILES): CN(C/C=C/c1ccc([N+](=O)[O-])cc1)Cc1coc2ccccc12 [Compound IA-16, (E)-N-methyl-N-[(benzofuran-3-yl)methylene]-3-(4-nitrophenyl)-prop-2-en-1-amine]
IC50 [15]: 9.5 ± 3.2 nM

Structure (SMILES): COc1ccccc1/C=C/CN(C)Cc1coc2ccccc12 [Compound IA-34, (E)-N-methyl-N-[(benzofuran-3-yl)methylene]-3-(2-methoxyphenyl)-prop-2-en-1-amine]
IC50 [15]: > 1000 nM

Structure (SMILES): Cc1ccccc1/C=C/CN(C)Cc1coc2ccccc12 [Compound IA-36, (E)-N-methyl-N-[(benzofuran-3-yl)methylene]-3-(2-methylphenyl)-prop-2-en-1-amine]
IC50 [15]: 86.4 ± 0.6 nM

Structure (SMILES): CN(CCCc1ccc(-c2ccccc2)cc1)Cc1coc2ccccc12 [Compound IE-1, 3-([1,1′-biphenyl]-4-yl)-N-(benzofuran-3-ylmethyl)-N-methylpropan-1-amine]
IC50 [15]: > 1000 nM

MIC80 [12]: 1 µg/mL (≈ 3.27 µM) | MIC80 [13]: 2 µg/mL (≈ 6.53 µM) | MIC80 [14]: 8 µg/mL (≈ 26.1 µM)
Structure (SMILES): OC(Cn1cncn1)(Cn1cncn1)c1ccc(F)cc1F [Fluconazole]

Structure (SMILES): CN(C/C=C/c1ccco1)Cc1coc2ccccc12 [Compound IA-14]
IC50 [15]: > 1000 nM

Structure (SMILES): COC(=O)c1ccc(/C=C/CN(C)Cc2coc3ccccc23)cc1 [Compound IA-13, (E)-N-methyl-N-[(benzofuran-3-yl)methylene]-3-(4-methylcarboxylatephenyl)prop-2-en-1-amine]
IC50 [15]: 9.45 ± 0.75 nM

Structure (SMILES): CN(C/C=C/c1ccc(C(F)(F)F)cc1)Cc1csc2ccccc12 [Compound IA-41, (E)-N-(benzo[b]thiophen-3-ylmethyl)-N-methyl-3-(4-(trifluoromethyl)phenyl)prop-2-en-1-amine]
IC50 [15]: 52.1 ± 0.8 nM

Structure (SMILES): CN(C/C=C/c1cccc([N+](=O)[O-])c1)Cc1coc2ccccc12 [Compound IA-29, (E)-N-methyl-N-[(benzofuran-3-yl)methylene]-3-(3-nitrophenyl)-prop-2-en-1-amine]
IC50 [15]: > 1000 nM

Structure (SMILES): CN(C/C=C/c1cccc(Cl)c1)Cc1coc2ccccc12 [Compound IA-12, (E)-N-methyl-N-[(benzofuran-3-yl)methylene]-3-(3-chlorophenyl)prop-2-en-1-amine]
IC50 [15]: > 1000 nM

Structure (SMILES): CN(C/C=C/c1ccccc1Cl)Cc1coc2ccccc12 [Compound IA-8, (E)-N-methyl-N-[(benzofuran-3-yl)methylene]-3-(2-chlorophenyl)prop-2-en-1-amine]
IC50 [15]: 360 ± 57.8 nM
